Reference: patent US10647680B2, “Urea compound, preparation method therefor and medical use thereof” (Ancureall Pharmaceutical (Shanghai) Co., Ltd., priority 2016, dated 2020)

Key:
U937 (FLT3 wild-type) = assay: In vitro growth inhibition (GI50), U937; assay type: cell-based; conditions: Homo sapiens, U-937; Cell lines of leukemia; read-out: GI 50 U937 FLT 3(WT)
[1] = tested on: MV4-11 (FLT3 ITD+/+ mutant type); assay: In vitro growth inhibition (GI50), MV4-11; assay type: cell-based, human; conditions: Homo sapiens, MV4-11; Cell lines of leukemia; read-out: GI 50 MV4-11 FLT3 (ITD +/+)
RS4; 11 (FLT3 wild type) = assay: In vitro growth inhibition (GI50), RS4; 11; assay type: cell-based, human; conditions: Homo sapiens, RS4-11; Cell lines of leukemia; read-out: GI 50 RS4: 11 FLT3 (WT)
[2] = tested on: Kasumi-1 (c-Kit N822K mutant type); assay: In vitro growth inhibition (GI50), Kasumi-1; assay type: cell-based; conditions: Homo sapiens, Cell lines of leukemia, read-out: GI 50 Kasumi-1 Kit (N822K)
Summary of the method: (§1)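 Cells in RPMI1640 with 10% FBS, seeded at 5–10×10^4 cells/mL, exposed next day to compound at 5,000 nM down to 0.01 nM (2- or 10-fold dilutions, ≤1% solvent) for 3–5 days at 37 °C. CCK8 absorbance at 450 nm, growth rate relative to pre-treatment and solvent controls, GI50 from concentration–growth curve.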

[3] = tested on: RAMOS (positive expression of Brutons tyrosine protein kinase); assay: In vitro growth inhibition (GI50), RAMOS; assay type: cell-based; conditions: Homo sapiens, Cell lines of leukemia, read-out: GI 50 Ramos BTK
[4] = tested on: MOLM-13 (FLT3 ITD+/− mutant type); assay: In vitro growth inhibition (GI50), MOLM-13; assay type: cell-based, human; conditions: Homo sapiens, MOLM-13; Cell lines of leukemia; read-out: GI 50 MOLM-13 FLT3 (ITD+/−)
[5] = tested on: KG-1 (expressing FGFR1OP2-FGFR1 fusion protein); assay: In vitro growth inhibition (GI50), KG-1; assay type: cell-based; conditions: Homo sapiens; Cell lines of leukemia; read-out: GI 50 KG-1 FGFR1OP 2-FGFR1
HL-60 (FLT3 wild type) = assay: In vitro growth inhibition (GI50), HL-60; assay type: cell-based; conditions: Homo sapiens, Cell lines of leukemia, read-out: GI 50 HL60 FLT3 (WT)
Summary of the method: as §1

[6] = tested on: OCI-AML3 (NPMc+ mutant type); assay: In vitro growth inhibition (GI50), OCI-AML3; assay type: cell-based; conditions: Homo sapiens, OCI-AML-3; Cell lines of leukemia; read-out: GI 50 OCI- AML3 NPMc+
[7] = tested on: K562 (FLT3 negative expression, positive expression of BCR-ABL fusion protein); assay: In vitro growth inhibition (GI50), K562; assay type: cell-based; conditions: Homo sapiens, Cell lines of leukemia, read-out: GI 50 K562 BCR-ABL

Structure (SMILES) | GI50 (U937 (FLT3 wild-type)) [nM] | GI50 [1] [nM] | GI50 (RS4; 11 (FLT3 wild type)) [nM] | GI50 [2] [nM] | GI50 [3] [nM] | GI50 [4] [nM] | GI50 [5] [nM] | GI50 (HL-60 (FLT3 wild type)) [nM] | GI50 [6] [nM] | GI50 [7] [nM]
COc1cc2ncn(-c3ccc(NC(=O)Nc4cc(C(C)(C)C)on4)cc3)c2cc1OC [Compound 31, 1-(5-tert-butyl-isoxazol-3-yl)-3-[4-(5,6-dimethoxyl-benzimidazol-1-yl)-phenyl]-urea] | > 1000 | 0.1 to 1 | 100 to 1000 | 100 to 1000 | 100 to 1000 | 0.1 to 1 | > 1000 | > 1000 | > 1000 | 100 to 1000
Cc1cc2ncn(-c3ccc(NC(=O)Nc4cc(C(C)(C)C)on4)cc3)c2cc1C [Compound 32, 1-(5-tert-butyl-isoxazol-3-yl)-3-[4-(5,6-dimethyl-benzimidazol-1-yl)-phenyl]-urea] | > 1000 | 1 to 10 | > 1000 | > 1000 | > 1000 | 1 to 10 | > 1000 | > 1000 | > 1000 | > 1000
Cc1cc(F)cc2ncn(-c3ccc(NC(=O)Nc4cc(C(C)(C)C)on4)cc3)c12 [Compound 33, 1-(5-tert-butyl-isoxazol-3-yl)-3-[4-(5-fluoro-7-methyl-benzimidazol-1-yl)-phenyl]-urea] | > 1000 | 1 to 10 | > 1000 | > 1000 | > 1000 | 1 to 10 | > 1000 | 100 to 1000 | > 1000 | > 1000
CC(C)(C)c1cc(NC(=O)Nc2ccc(-n3cnc4c(F)cccc43)cc2)no1 [Compound 34, 1-(5-tert-butyl-isoxazol-3-yl)-3-[4-(4-fluoro-benzimidazol-1-yl)-phenyl]-urea] | > 1000 | 0.1 to 1 | > 1000 | > 1000 | > 1000 | 0.1 to 1 | > 1000 | > 1000 | > 1000 | > 1000
Cc1nc2ccccc2n1-c1ccc(NC(=O)Nc2cc(C(C)(C)C)on2)cc1 [Compound 35, 1-(5-tert-butyl-isoxazol-3-yl)-3-[4-(2-methyl-benzimidazol-1-yl)-phenyl]-urea] | > 1000 | 100 to 1000 | 100 to 1000 | > 1000 | > 1000 | 100 to 1000 | > 1000 | > 1000 | > 1000 | 100 to 1000
CC(C)(C)c1cc(NC(=O)Nc2ccc(-n3c(Cl)nc4ccccc43)cc2)no1 [Compound 36, 1-(5-tert-butyl-isoxazol-3-yl)-3-[4-(2-chlorobenzimidazol-1-yl)-phenyl]-urea] | > 1000 | 100 to 1000 | > 1000 | > 1000 | > 1000 | 100 to 1000 | > 1000 | > 1000 | > 1000 | > 1000
Cc1cc(NC(=O)Nc2cc(C(C)(C)C)on2)ccc1-n1cnc2ccccc21 [Compound 37, 1-(4-benzimidazol-1-yl-3-methyl-phenyl)-3-(5-tert-butyl-isoxazol-3-yl)-urea] | > 1000 | 100 to 1000 | > 1000 | > 1000 | > 1000 | 100 to 1000 | > 1000 | > 1000 | > 1000 | > 1000
CC(C)(C)c1cc(NC(=O)Nc2ccc(-n3cnc4ccccc43)c(Cl)c2)no1 [Compound 38, 1-(4-benzimidazol-1-yl-3-chloro-phenyl)-3-(5-tert-butyl-isoxazol-3-yl)-urea] | > 1000 | 100 to 1000 | > 1000 | > 1000 | > 1000 | 100 to 1000 | > 1000 | > 1000 | > 1000 | > 1000
CC(C)(C)c1cc(NC(=O)Nc2ccc(-n3cnc4ccccc43)c(F)c2)no1 [Compound 39, 1-(4-benzimidazol-1-yl-3-fluoro-phenyl)-3-(5-tert-butyl-isoxazol-3-yl)-urea] | > 1000 | 100 to 1000 | > 1000 | > 1000 | > 1000 | 100 to 1000 | > 1000 | > 1000 | > 1000 | > 1000
CC(C)(C)c1cc(NC(=O)Nc2cc(F)c(-n3cnc4ccccc43)c(F)c2)no1 [Compound 40, 1-(4-benzimidazol-1-yl-3,5-difluoro-phenyl)-3-(5-tert-butyl-isoxazol-3-yl)-urea] | > 1000 | 100 to 1000 | > 1000 | > 1000 | > 1000 | 100 to 1000 | > 1000 | > 1000 | > 1000 | > 1000
CC(C)(C)c1cc(NC(=O)Nc2ccc(-n3cnc4ccccc43)cc2Cl)no1 [Compound 41, 1-(4-benzimidazol-1-yl-2-chloro-phenyl)-3-(5-tert-butyl-isoxazol-3-yl)-urea] | > 1000 | 10 to 100 | > 1000 | > 1000 | > 1000 | 10 to 100 | > 1000 | > 1000 | > 1000 | > 1000
CC(C)(C)c1cc(NC(=O)Nc2ccc(-n3cnc4ccccc43)nc2)no1 [Compound 42, 1-(6-benzimidazol-1-yl-pyridin-3-yl)-3-(5-tert-butyl-isoxazol-3-yl)-urea] | > 1000 | 1 to 10 | > 1000 | > 1000 | > 1000 | 1 to 10 | > 1000 | > 1000 | > 1000 | > 1000
CC(C)(C)c1cc(NC(=O)Nc2cnc(-n3cnc4ccccc43)nc2)no1 [Compound 43, 1-(2-benzimidazol-1-yl-pyrimidin-5-yl)-3-(5-tert-butyl-isoxazol-3-yl)-urea] | > 1000 | 10 to 100 | > 1000 | > 1000 | > 1000 | 10 to 100 | > 1000 | > 1000 | > 1000 | > 1000
CC(C)(C)c1cc(NC(=O)Nc2ccc(-n3ccc4ccccc43)cc2)no1 [Compound 44, 1-(5-tert-butyl-isoxazol-3-yl)-3-(4-indol-1-yl-phenyl)-urea] | > 1000 | > 1000 | > 1000 | > 1000 | > 1000 | > 1000 | > 1000 | > 1000 | > 1000 | > 1000
CC(C)(C)c1cc(NC(=O)Nc2ccc(-n3ncc4cccc(F)c43)cc2)no1 [Compound 47, 1-(5-tert-butyl-isoxazol-3-yl)-3-[4-(7-fluoro-indazol-1-yl)-phenyl]-urea] | > 1000 | 100 to 1000 | > 1000 | > 1000 | > 1000 | 100 to 1000 | > 1000 | > 1000 | > 1000 | > 1000
CC(C)(C)c1cc(NC(=O)Nc2ccc(-n3nnc4ccccc43)cc2)no1 [Compound 48, 1-(4-benzotriazol-1-yl-phenyl)-3-(5-tert-butyl-isoxazol-3-yl)-urea] | > 1000 | 100 to 1000 | > 1000 | > 1000 | > 1000 | 100 to 1000 | > 1000 | > 1000 | > 1000 | > 1000
CC(C)(C)c1cc(NC(=O)Nc2ccc(-n3ccc4cccnc43)cc2)no1 [Compound 49, 1-(5-tert-butyl-isoxazol-3-yl)-3-(4-pyrrolo[2,3-b]pyridin-1-yl-phenyl)-urea] | > 1000 | 100 to 1000 | > 1000 | > 1000 | > 1000 | 100 to 1000 | > 1000 | > 1000 | > 1000 | > 1000
CC(C)(C)c1cc(NC(=O)Nc2ccc(-n3cnc4cccnc43)cc2)no1 [Compound 50, 1-(5-tert-butyl-isoxazol-3-yl)-3-(4-imidazo[4,5-b]pyridin-3-yl-phenyl)-urea] | > 1000 | 0.1 to 1 | > 1000 | > 1000 | > 1000 | 0.1 to 1 | > 1000 | > 1000 | > 1000 | > 1000
